Measured values taken from patent publication US20150246888A1, “ENOYL REDUCTASE INHIBITORS WITH ANTIBACTERIAL ACTIVITY” (priority 2012, published 2015).
Values after ≈ are worked out from the molar mass of the structure shown. Like-named read-outs stand apart in the source and are kept apart here.

How the values were obtained:
[1] = tested on: S. aureus (ATCC number 29213); experiment: microbe, parasite or virus in culture; type: cell-based
[2] = tested on: S. aureus; experiment: Cell viability as a function of time (measured with depolarization); type: cell-based
[3] = tested on: S. aureus membrane; experiment: Membrane depolarization as a function of time; type: cell-based
[4] = target: FtuFabI (Francisella tularensis subsp. tularensis, UniProt Q5NGQ3); experiment: biochemical; parameters: species or system F. tularensis subsp. tularensis Schu4
Chain of FtuFabI (Q5NGQ3 1-260 limits assumed): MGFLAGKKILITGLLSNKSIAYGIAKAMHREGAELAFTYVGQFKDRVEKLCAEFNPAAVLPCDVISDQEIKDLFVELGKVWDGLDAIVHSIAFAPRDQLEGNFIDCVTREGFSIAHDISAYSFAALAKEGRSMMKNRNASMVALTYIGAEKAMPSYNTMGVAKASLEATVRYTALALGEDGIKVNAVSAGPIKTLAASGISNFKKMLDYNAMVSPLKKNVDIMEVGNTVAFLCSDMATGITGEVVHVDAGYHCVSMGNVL

[5] = tested on: MRSA (ATCC number 43300); experiment: microbe, parasite or virus in culture; type: cell-based, methicillin-resistant Staphylococcus aureus; conditions: Staphylococcus aureus
[6] = tested on: B. anthracis, ΔANR strain; experiment: microbe, parasite or virus in culture; type: cell-based; conditions: Bacillus anthracis
[7] = tested on: E. coli TolC-, an efflux defective mutant; experiment: microbe, parasite or virus in culture; type: cell-based; conditions: Escherichia coli
[8] = tested on: F. tularensis, strain Utah 112; experiment: microbe, parasite or virus in culture; type: cell-based; conditions: Francisella tularensis, UTAH112
[9] = tested on: E. coli (BW251113 strain); experiment: microbe, parasite or virus in culture; type: cell-based; conditions: Escherichia coli
[10] = read-out: IC50, Inhibition of FabI

Structure (SMILES)	MIC [1] [µg/mL]	Cell viability (done at 2X MIC) [2]	Depolarization (done at 2X MIC) [3]	MIC ([1]; Staphylococcus aureus) [µg/mL]	IC50 [4, 10] [nM]	MIC [5] [µg/mL]	MIC [6] [µg/mL]	MBC [7] [µg/mL]	MIC [7] [µg/mL]	MIC [8] [µg/mL]	MIC [9] [µg/mL]	MBC ([1]; Staphylococcus aureus) [µg/mL]	MBC [5] [µg/mL]	MBC [6] [µg/mL]	MBC [8] [µg/mL]	IC50 [4] [nM]
CC1(C)S[C@@H]2[C@H](NC(=O)[C@H](N)c3ccccc3)C(=O)N2[C@H]1C(=O)O [Ampicillin, reference compound]	0.4 (≈ 1.14 µM)	bactericidal	No depolarization													
N#CC(C#N)=NNc1cccc(Cl)c1 [CCCP, carbonyl cyanide m-chlorophenylhydrazone, reference compound]		bactericidal	Highly depolarizing	1 (≈ 4.89 µM)												
Cc1cc2ncn(Cc3ccc(Cl)c(Cl)c3)c2cc1C [Compound 1, 1-(3,4-dichlorobenzyl)-5,6-dimethyl-1H-benzo[d]imidazole]		Bactericidal intially but cells recover and compound is not lethal overnight	Depolarization seen initially in the first 60 min	25 (≈ 81.9 µM)	300											
Cc1cc2ncn(C(C)c3ccc(Cl)c(Cl)c3)c2cc1C (centres unmarked) [Compound 2, 1-(1-(3,4-dichlorophenyl)ethyl)-5,6-dimethyl-1H-benzo[d]imidazole]				12.5 (≈ 39.2 µM)	370	12.5 (≈ 39.2 µM)	12.5 (≈ 39.2 µM)	12.5 (≈ 39.2 µM)	6.3 (≈ 19.7 µM)	> 12.5	> 12.5					
CC(c1ccc(Cl)c(Cl)c1)n1cnc2cc3c(cc21)CCC3 (centres unmarked) [Compound 3, 1-(1-(3,4-dichlorophenyl)ethyl)-1,5,6,7-tetrahydroindeno[5,6-d]imidazole]	5.5 (≈ 16.6 µM)	Bacteriostatic	Initially depolarizing (in first 60 min) but cells ‘recover’ and regain polarization compared to control with no compound	5.5 (≈ 16.6 µM)		6.3 (≈ 19 µM)	3.9 (≈ 11.8 µM)	12.5 (≈ 37.7 µM)	3.1 (≈ 9.36 µM)	3.9 (≈ 11.8 µM)	> 12.5	> 25	12.5 (≈ 37.7 µM)	4.7 (≈ 14.2 µM)	9.4 (≈ 28.4 µM)	43
CC(c1ccc(Cl)c(Cl)c1)n1cnc2cc3c(cc21)CC(C)(C)C3 (centres unmarked) [Compound 5, 1-(1-(3,4-dichlorophenyl)ethyl)-6,6-dimethyl-1,5,6,7-tetrahydroindeno[5,6-d]imidazole]				4.7 (≈ 13.1 µM)	240	4.7 (≈ 13.1 µM)	> 12.5		> 12.5	> 12.5	> 12.5	> 12.5	> 12.5			
CC(c1ccc(Cl)c(Cl)c1)n1cnc2cc3c(cc21)COC3 (centres unmarked) [Compound 6, 1-(1-(3,4-dichlorophenyl)ethyl)-5,7-dihydro-1H-isobenzofuro[5,6-d]imidazole]				> 12.5	890	> 12.5	> 12.5		> 12.5	> 12.5	> 12.5					
COc1ccc(Cn2cnc3cc(C)c(C)cc32)cc1C [Compound 7, 1-(4-methoxy-3-methylbenzyl)-5,6-dimethyl-1H-benzo[d]imidazole]				> 12.5		> 12.5	> 12.5		12.5 (≈ 44.6 µM)	> 12.5	> 12.5					250
COc1ccc(Cn2cnc3cc4c(cc32)CCC4)cc1C [Compound 8, 1-(4-methoxy-3-methylbenzyl)-1,5,6,7-tetrahydroindeno[5,6-d]imidazole]				> 12.5	5	> 12.5	> 12.5		12.5 (≈ 42.8 µM)	5.5 (≈ 18.8 µM)	> 12.5				12.5 (≈ 42.8 µM)	
COc1ccc(Cn2cnc3cc4c(cc32)CC(C)(C)C4)cc1C [Compound 11, 1-(4-methoxy-3-methylbenzyl)-6,6-dimethyl-1,5,6,7-tetrahydroindeno[5,6-d]imidazole]				> 12.5		> 12.5	> 12.5		> 12.5	> 12.5	> 12.5					14
COc1ccc(Cn2cnc3cc4c(cc32)CC(C)(C)C4)cc1OC [Compound 12, 1-(3,4-dimethoxybenzyl)-6,6-dimethyl-1,5,6,7-tetrahydroindeno[5,6-d]imidazole]				> 12.5		> 12.5	> 12.5		> 12.5	> 12.5	> 12.5					71
CC1(C)Cc2cc3ncn(Cc4ccc5c(c4)OCO5)c3cc2C1 [Compound 13, 1-(benzo[d][1,3]dioxol-5-ylmethyl)-6,6-dimethyl-1,5,6,7-tetrahydroindeno[5,6-d]imidazole]				> 12.5		> 12.5	> 12.5		12.5 (≈ 39 µM)	> 12.5	> 12.5					29
CC1(C)Cc2cc3ncn(Cc4ccc5c(c4)CC[C@@H]5O)c3cc2C1 [Compound 15, (S)-5-((6,6-dimethyl-6,7-dihydroindeno[5,6-d]imidazol-1(5H)-yl)methyl)-2,3-dihydro-1H-inden-1-ol]				> 12.5		> 12.5	> 12.5		> 12.5	> 12.5	> 12.5					41
COc1ccc(Cn2cnc3cc(C)c(C)cc32)cc1 [Compound 16, 1-(4-methoxybenzyl)-5,6-dimethyl-1H-benzo[d]imidazole]																4700
Cc1cc2ncn(Cc3ccc4c(c3)OCO4)c2cc1C [Compound 17, 1-(benzo[d][1,3]dioxol-5-ylmethyl)-5,6-dimethyl-1H-benzo[d]imidazole]																4400
Cc1cc2ncn(Cc3ccc(O)c(C)c3)c2cc1C [Compound 18, 4-((5,6-dimethyl-1H-benzo[d]imidazol-1-yl)methyl)-2-methylphenol]																1300
c1cc2c(cc1Cn1cnc3cc4c(cc31)CCC4)OCO2 [Compound 19, 1-(benzo[d][1,3]dioxol-5-ylmethyl)-1,5,6,7-tetrahydroindeno[5,6-d]imidazole]				9.4 (≈ 32.2 µM)		10.9 (≈ 37.3 µM)	> 12.5		> 12.5	6.3 (≈ 21.6 µM)	> 12.5	> 25	> 25		37.5 (≈ 128 µM)	2200
COc1ccc(Cn2cnc3cc4c(cc32)CCC4)cc1 [Compound 20, 1-(4-methoxybenzyl)-1,5,6,7-tetrahydroindeno[5,6-d]imidazole]				> 12.5		> 12.5	> 12.5		> 12.5	5.5 (≈ 19.8 µM)	> 12.5				37.5 (≈ 135 µM)	840
Nc1ccc(Cn2cnc3cc4c(cc32)CCC4)cc1 [Compound 21, 4-((6,7-dihydroindeno[5,6-d]imidazol-1(5H)-yl)methyl)aniline]				> 12.5		> 12.5	> 12.5		> 12.5	> 12.5	> 12.5					12000
COc1ccc(Cn2cnc3cc(C)c(C)cc32)cc1OC [Compound 22, 1-(3,4-dimethoxybenzyl)-5,6-dimethyl-1H-benzo[d]imidazole]																7600
COc1ccc(Cn2cnc3cc4c(cc32)CCC4)cc1OC [Compound 23, 1-(3,4-dimethoxybenzyl)-1,5,6,7-tetrahydroindeno[5,6-d]imidazole]																5900
COc1ccc(Cn2cnc3cc4c(cc32)CCCC4)cc1 [Compound 24, 1-(4-methoxybenzyl)-5,6,7,8-tetrahydro-1H-naphtho[2,3-d]imidazole]				> 12.5		> 12.5	> 12.5	> 25	12.5 (≈ 42.8 µM)	4.7 (≈ 16.1 µM)	> 12.5				18.8 (≈ 64.3 µM)	330
Oc1cc(Cl)ccc1Oc1ccc(Cl)cc1Cl [Triclosan, reference compound]		Possibly bacteriostatic initially but then bactericidal after overnight incubation	Strongly depolarizing	0.4 (≈ 1.38 µM)												
